In data set [1] the test system is PC-3 cell line (prostate cancer cell). As to the kind of experiment: Cell apoptosis (XTT method) in PC-3 cells. It is filed as cell-based. To be noted: for IC50: PC3 (Prostate Cancer Cells), cultured six days, XTT. As to the method:
(§1) Each oligonucleotide was diluted in 10 mM Tris-HCl (pH 7.4) to a final concentration of 100 μM. The diluted solution was placed at 94° C. for 5 minutes and then quickly placed them on ice and left therein for 5 minutes. The resultant was added with 2M KCl to a final concentration of 50 mM, left at 60° C. for 3 hours and then slowly cooled down to room temperature.
(§2) One day before the experiment, 190 μL of culture, wherein PC-3 cell line(prostate cancer cell) was suspended at a concentration of 10^3-10^4/mL, was inoculated respectively into each well of a 96 well plate. The next day, 10 μL of the oligonucleotide solution prepared in Example 1 was added and cultured for six days. Six days after the inoculation, cell apoptosis rate measured by means of XTT method [JBC 1999, 26369].
For orientation: Tetrazolium dyes change colour on reduction, which living cells bring about.

Data set [2] relates to A549 (Non-small Cell Carcinoma Cells). As to the kind of experiment: Cell apoptosis (XTT method) in A549 cells. It counts as cell-based.
Data set [3] has as its system MCF7-DX (Breast Cancer Cells), a drug-resistance cell line. The data set can be described thus: Cell apoptosis (XTT method) in MCF7-DX cells. It is filed as cell-based. As to the method: [Worded in the source for another cell line; this cell line is reported under the same test.] as §1, §2
(§3) As a result, it was confirmed that the cell apoptosis rate of APT-2001, APT-2002 and APT-2003 (the novel modified oligonucleotides of the present invention), was 3-10 times higher than those of APT-4001 (positive control) and APT-4002 (negative control) as measured in terms of IC50 or IC90 (FIG. 2). […] In addition, the cell apoptotic activity of the oligonucleotides, prepared according to the present invention over the K562 CML (chronic myeloid leukemia), MV-4-11 AML (acute leukemia) cells, were also verified.

Data set [4] concerns A498 (Kidney Cancer Cells). As to the kind of experiment: Cell apoptosis (XTT method) in A498 cells. It is filed as cell-based.
Data set [5] deals with mice. As to the kind of experiment: Toxicity test in mice. It counts as in vivo. To be noted: 1 g/kg administered, 10 mice/group, observed for the next 7 days. The protocol: Toxicity test was performed on the active ingredient of the present invention as follows.
Each of APT-2001, APT-2002 and APT-2003 was dissolved in dimethylsulfoxide (DMSO), diluted with water and then administered to mice (10 mice/group) in the amount of 1 g/kg.

Data set [6] has as its system MCF7 (Breast Cancer Cells). As to the kind of experiment: Cell apoptosis (XTT method) in MCF7 cells. It counts as cell-based. The protocol: [Worded in the source for another cell line; this cell line is reported under the same test.] as §1, §2, §3
The subject of data set [7] is HCT116 (Rectal Cancer Cells). As to the kind of experiment: Cell apoptosis (XTT method) in HCT116 cells. It is filed as cell-based. As to the method:
[Worded in the source for another cell line; this cell line is reported under the same test.] as §1, §2, §3

[5FU] = 5-fluoro-uracil base (5-fluoro-2'-deoxyuridine); [GEM] = 2',2'-difluoro-2'-deoxycytidine (gemcitabine); d = 2'-deoxy (DNA)

Regarding “APT-2002: NNNGGTGGTGGTGGTTGTGGTGGTGGTGG (SEQ. ID. NO. 2); N=5-F-deoxyuridine, G=2-deoxy-guanosine, H=thymidine (DNA UUUGGTGGTGGTGGTTGTGGTGGTGGTGG; DNA, [5FU] at 1, 2, 3, backbone not given here)”, the IC50 is 2600 nM in data set [1]; 5200 nM in data set [2]; 600 nM in data set [3]; under 100 nM in data set [4]; 8900 nM in data set [6]; 2100 nM in data set [7]. Also, the “cell apoptotic activity compared to APT-4001 (positive control)” value in data set [1] (even at a smaller amount than APT-4001, FIG. 3) is given as “superior cell apoptotic activity”. Besides, the survival of mice result in data set [5] was “all mice survived”.
On to “APT-2061: GGTGGTGGTNGTGGTGGTGG (SEQ. ID. NO. 38); N=2′,2′-difluoro deoxycytidine, G=2-deoxy-guanosine, H=thymidine (DNA GGTGGTGGTCGTGGTGGTGG; aptamer; sugars from the 5' end d9 [GEM]1 d10, backbone not given here; G-quadruplex forming oligonucleotide)”, for which the IC50 amounted to 41 nM in data set [1] and 22 nM in data set [3].
As to “APT-2063: GGTGGTGGTNGNGGTGGTGG (SEQ. ID. NO. 40); N=2′,2′-difluoro deoxycytidine, G=2-deoxy-guanosine, H=thymidine (aptamer; listed as DNA, chemistry not fully specified)”, the IC50 in data set [1] came to 22 nM; in data set [3], 8 nM.
The matching figures for “APT-2064: GGNGGTGGTTGTGGTGGNGG (SEQ. ID. NO. 41); N=2′,2′-difluoro deoxycytidine, G=2-deoxy-guanosine, H=thymidine (DNA GGCGGTGGTTGTGGTGGCGG; sugars from the 5' end d2 [GEM]1 d14 [GEM]1 d2, backbone not given here; G-quadruplex forming oligonucleotide)”: 16 nM and 8 nM.
The corresponding values for “APT-2066: GGTGGTGGTGGTNNTGGTGGTGGTGG (SEQ. ID. NO. 29); N=2′,2′-difluoro deoxycytidine, G=2-deoxy-guanosine, H=thymidine (DNA GGTGGTGGTGGTCCTGGTGGTGGTGG; sugars from the 5' end d12 [GEM]2 d12, backbone not given here; G-quadruplex forming oligonucleotide)” are 34 nM and 10 nM.
The corresponding values for “APT-2070: GGNGGTGGTGGTTGTGGTGGTGGTGG (SEQ. ID. NO. 45); N=2′,2′-difluoro deoxycytidine, G=2-deoxy-guanosine, H=thymidine (2',2'-difluoro deoxycytidine modified nucleosides, chemistry not fully specified)” are 24 nM and 13 nM.
Consider “APT-4002: Negative control, TTTCCTCCTCCTCCTTCTCCTCCTCCTCC (SEQ. ID. NO. 49); thymidine, 2′-deoxycytidine (DNA, backbone not given here) [reference compound]”, for which the IC50 in data set [1], in data set [2], in data set [3], in data set [4] and in data set [7] was over 50000 nM throughout.

One may read the IC50 as the concentration at which inhibition is half-maximal. Low values mean higher potency, high ones lower potency.

These data come from patent publication US9056886B2, “Guanosine-rich modified oligonucleotides and antiproliferative activity thereof” (APTABIO THERAPEUTICS INC., priority 2009, dated 2015).
